Article PMC10140010 (Investigational New Drugs, 2023)
Values joined by “and” are separate entries in the source; they are usually repeats but may differ in a detail not shown here. Identical values can stand only once. Like-named read-outs stand apart in the source and are kept apart here.

Key:
[1] = system: phosphorylation of ALK, AKT, ERK, STAT3 and STAT5 in NCI-H3122 tumor tissue; test: Phosphorylation of downstream signal molecules in tumor tissue of NCI-H3122 xenograft; assay type: in vivo, BALB/c nude mice; settings: 8 h after administration
Description: In general, the cells were exposed to the drug and were harvested for western blot analysis. SDS-PAGE was used to separate the proteins of interest, which were then transferred to a nitrocellulose (NC) filtration membrane and soaked in a blocking solution [5% non-fat dry milk in tris-buffered saline with Tween 20 (TBST)] for 1 h at room temperature. Thereafter, the membrane was probed overnight with primary antibodies at 4℃ and washed three times with TBST. The corresponding secondary antibody diluent was added, incubated at room temperature for 1 h, and washed 3 times with TBST. After adding the enhanced chemiluminescence developer to the NC filtration membrane, it is developed in the imaging system (ChemiDoc™ XRS^+, BIO-RAD). See Supplementary Table 2 for details of the antibodies used.
In order to check how iruplinalkib exerts its anti-tumor effects in vivo, tumor tissue samples were collected at 1 and 8 h after the last dose, and the phosphorylation level of downstream signaling pathways molecules were detected.

[2] = target: INSR (Homo sapiens, UniProt P06213); test: Z'-LYTE kinase selectivity; assay type: biochemical
[3] = system: Ba/F3 (EML4-ALK^C1156Y) cells; test: Cell proliferation (CellTiter-Glo); assay type: cell-based
Description: (§1) Cell proliferation assay was performed using methods reported in the previous article. Cell proliferation was measured using the CellTiter-Glo® (CTG) Luminescent Cell Viability Assay (Promega, WI, USA). Cells were seeded in 96-well plates at 15,000 cells per well in detection medium containing 0.5% fetal bovine serum and placed in an incubator at 37℃ and 5% CO2 overnight. On the following day, iruplinalkib was serially diluted with DMSO, further diluted in assay medium, and added to the designated wells for serial dilution of iruplinalkib to the target gradient concentration.
(§2) Transfection was performed when cell confluent reached 70–90% in 12-well plates. Opti-MEM medium was used to dilute Lipofectamine 3000 reagent (ThermoFisher, MA, USA) and siRNA separately and mixed well. The mixture was added to the cells after incubation at room temperature for 15 min, then at 37℃ for 2–4 days.

[4] = system: Ba/F3 (EML4-ALK^WT) cells; test: Cell proliferation (CellTiter-Glo); assay type: cell-based
Description: as §1, §2

[5] = target: KDR (Homo sapiens, UniProt P35968); test: Z'-LYTE kinase selectivity; assay type: biochemical
[6] = target: LCK (Homo sapiens, UniProt P06239); test: Z'-LYTE kinase selectivity; assay type: biochemical
[7] = target: MAP4K4 (Homo sapiens, UniProt O95819); test: Z'-LYTE kinase selectivity; assay type: biochemical
[8] = target: TNIK (Homo sapiens, UniProt Q9UKE5); test: Z'-LYTE kinase selectivity; assay type: biochemical
[9] = target: c-MET (Homo sapiens, UniProt P08581); test: Z'-LYTE kinase selectivity; assay type: biochemical
[10] = target: ABL (Homo sapiens, UniProt P00519); test: Z'-LYTE kinase selectivity; assay type: biochemical
[11] = target: PDK1 (Homo sapiens, UniProt O15530); test: Z'-LYTE kinase selectivity; assay type: biochemical; settings: read-out: IC50 PDK1
[12] = target: PKA (Homo sapiens, UniProt P17612); test: Z'-LYTE kinase selectivity; assay type: biochemical
[13] = target: CaMK2 alpha (Homo sapiens, UniProt Q9UQM7); test: Z'-LYTE kinase selectivity; assay type: biochemical
[14] = system: HCC-78 (SLC34A2-ROS1) cells; test: Cell proliferation (CellTiter-Glo); assay type: cell-based
Description: as §1

[15] = system: Ba/F3 cells; test: Cell proliferation (CellTiter-Glo); assay type: cell-based
Description: as §1

[16] = system: Karpas299 (NPM-ALK) cells; test: Cell proliferation (CellTiter-Glo); assay type: cell-based
Description: as §1

[17] = system: NIH-3T3 (CD74-ROS1) cells; test: Cell proliferation (CellTiter-Glo); assay type: cell-based
Description: as §1

[18] = system: NCI-H3122 (EML4-ALK) xenograft; test: NCI-H3122 cell line-derived xenograft model (tumor volume, body weight); assay type: in vivo, BALB/c nude mice; settings: for Tumor volume, individual animals: in mm³
Description: Female BALB/c nude mice (4–6 weeks old) were provided by Shanghai Sipple-Bikai Laboratory Animal Co., Ltd. and Beijing Vital River Laboratory Animal Technology Co., Ltd. The mice were housed in a specific pathogen-free environment under a 12 h light/dark cycle, and had free access to sterile animal feed and water.
PDX and CDX models were used for in vivo studies. Patient-derived tumors tissues were divided into about 30 mm^3 and transplanted into the right dorsal subcutis. Treatment began when the tumor size reached to 200 mm^3. The mice were randomly assignied into the corresponding dosing groups (9 mice in each group). Drugs were deliverd via daily oral for 4 weeks. Tumor size was measured periodically using a digital caliper (Cal Pro, Sylvac, Switzerland), and tumor volume was calculated as 0.5 × length × width^2. For more detailed information, please refer to Supplementary materials. All procedures and protocols of xenograft models were approved by the Institutional Animal Care and Use Committee of WuXi AppTec.
NCI-H3122 cells were re-suspended with 0.9% sodium chloride, and then 6×10^6 cells in 100 μL was inoculated subcutaneously into the right armpit of nude mice to prepare solid tumor models under sterile conditions. […] Groups were gavaged once daily with the base dose of drug for 21 days. The blank control group was given the same volume of vehicle (sterile water) injection according to the same protocol, with the dose volume of 100 μL/10 g.

[19] = target: CHK1 (Homo sapiens, UniProt O14757); test: Z'-LYTE kinase selectivity; assay type: biochemical
[20] = target: JNK1 (Homo sapiens, UniProt P45983); test: Z'-LYTE kinase selectivity; assay type: biochemical
[21] = 5mg/kg PO QD×21, day 0 after administration
[22] = 5mg/kg PO QD×21, day 3 after administration
[23] = 5mg/kg PO QD×21, day 6 after administration
[24] = 5mg/kg PO QD×21, day 9 after administration
[25] = 5mg/kg PO QD×21, day 13 after administration
[26] = 5mg/kg PO QD×21, day 16 after administration
[27] = 5mg/kg PO QD×21, day 20 after administration
[28] = 2.5mg/kg PO QD×21, day 0 after administration
[29] = 2.5mg/kg PO QD×21, day 3 after administration
[30] = 2.5mg/kg PO QD×21, day 6 after administration
[31] = 2.5mg/kg PO QD×21, day 9 after administration
[32] = 2.5mg/kg PO QD×21, day 13 after administration
[33] = 2.5mg/kg PO QD×21, day 16 after administration
[34] = 2.5mg/kg PO QD×21, day 20 after administration

TNIK, sequence (Q9UKE5 whole entry): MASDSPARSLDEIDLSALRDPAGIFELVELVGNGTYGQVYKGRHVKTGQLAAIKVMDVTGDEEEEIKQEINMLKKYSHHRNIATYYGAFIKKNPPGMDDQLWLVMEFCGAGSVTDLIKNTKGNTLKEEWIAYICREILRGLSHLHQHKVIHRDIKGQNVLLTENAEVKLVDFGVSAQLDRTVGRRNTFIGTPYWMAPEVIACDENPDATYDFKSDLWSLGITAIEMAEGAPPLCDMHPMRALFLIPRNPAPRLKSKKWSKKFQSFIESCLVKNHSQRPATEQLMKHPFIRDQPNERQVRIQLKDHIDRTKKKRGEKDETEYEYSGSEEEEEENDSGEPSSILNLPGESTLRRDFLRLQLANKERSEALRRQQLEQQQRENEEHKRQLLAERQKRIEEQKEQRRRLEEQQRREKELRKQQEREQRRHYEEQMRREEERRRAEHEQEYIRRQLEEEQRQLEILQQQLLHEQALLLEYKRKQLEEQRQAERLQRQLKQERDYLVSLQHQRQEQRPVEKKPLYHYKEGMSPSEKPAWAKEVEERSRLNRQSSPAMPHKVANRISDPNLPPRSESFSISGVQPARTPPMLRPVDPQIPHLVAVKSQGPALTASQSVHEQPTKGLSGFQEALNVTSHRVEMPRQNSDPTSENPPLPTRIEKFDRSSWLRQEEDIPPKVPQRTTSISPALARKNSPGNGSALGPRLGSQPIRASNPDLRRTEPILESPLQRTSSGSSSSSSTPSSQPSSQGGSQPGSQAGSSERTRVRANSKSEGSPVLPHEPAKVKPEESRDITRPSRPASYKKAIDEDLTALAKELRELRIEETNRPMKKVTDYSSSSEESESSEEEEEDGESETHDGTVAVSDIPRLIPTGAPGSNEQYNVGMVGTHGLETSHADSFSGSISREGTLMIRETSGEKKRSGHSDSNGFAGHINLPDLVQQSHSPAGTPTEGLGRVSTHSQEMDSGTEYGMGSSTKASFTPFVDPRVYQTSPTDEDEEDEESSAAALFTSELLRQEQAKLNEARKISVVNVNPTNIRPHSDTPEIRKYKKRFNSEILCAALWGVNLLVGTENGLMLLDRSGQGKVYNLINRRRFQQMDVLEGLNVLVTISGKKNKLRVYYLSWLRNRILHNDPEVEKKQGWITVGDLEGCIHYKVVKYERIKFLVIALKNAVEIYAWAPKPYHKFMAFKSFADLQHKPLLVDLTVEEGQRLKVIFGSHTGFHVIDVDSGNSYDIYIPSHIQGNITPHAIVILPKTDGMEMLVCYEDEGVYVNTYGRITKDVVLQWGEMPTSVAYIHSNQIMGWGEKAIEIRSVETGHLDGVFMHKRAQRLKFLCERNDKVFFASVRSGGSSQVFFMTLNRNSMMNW
KDR, sequence (P35968 20-1356): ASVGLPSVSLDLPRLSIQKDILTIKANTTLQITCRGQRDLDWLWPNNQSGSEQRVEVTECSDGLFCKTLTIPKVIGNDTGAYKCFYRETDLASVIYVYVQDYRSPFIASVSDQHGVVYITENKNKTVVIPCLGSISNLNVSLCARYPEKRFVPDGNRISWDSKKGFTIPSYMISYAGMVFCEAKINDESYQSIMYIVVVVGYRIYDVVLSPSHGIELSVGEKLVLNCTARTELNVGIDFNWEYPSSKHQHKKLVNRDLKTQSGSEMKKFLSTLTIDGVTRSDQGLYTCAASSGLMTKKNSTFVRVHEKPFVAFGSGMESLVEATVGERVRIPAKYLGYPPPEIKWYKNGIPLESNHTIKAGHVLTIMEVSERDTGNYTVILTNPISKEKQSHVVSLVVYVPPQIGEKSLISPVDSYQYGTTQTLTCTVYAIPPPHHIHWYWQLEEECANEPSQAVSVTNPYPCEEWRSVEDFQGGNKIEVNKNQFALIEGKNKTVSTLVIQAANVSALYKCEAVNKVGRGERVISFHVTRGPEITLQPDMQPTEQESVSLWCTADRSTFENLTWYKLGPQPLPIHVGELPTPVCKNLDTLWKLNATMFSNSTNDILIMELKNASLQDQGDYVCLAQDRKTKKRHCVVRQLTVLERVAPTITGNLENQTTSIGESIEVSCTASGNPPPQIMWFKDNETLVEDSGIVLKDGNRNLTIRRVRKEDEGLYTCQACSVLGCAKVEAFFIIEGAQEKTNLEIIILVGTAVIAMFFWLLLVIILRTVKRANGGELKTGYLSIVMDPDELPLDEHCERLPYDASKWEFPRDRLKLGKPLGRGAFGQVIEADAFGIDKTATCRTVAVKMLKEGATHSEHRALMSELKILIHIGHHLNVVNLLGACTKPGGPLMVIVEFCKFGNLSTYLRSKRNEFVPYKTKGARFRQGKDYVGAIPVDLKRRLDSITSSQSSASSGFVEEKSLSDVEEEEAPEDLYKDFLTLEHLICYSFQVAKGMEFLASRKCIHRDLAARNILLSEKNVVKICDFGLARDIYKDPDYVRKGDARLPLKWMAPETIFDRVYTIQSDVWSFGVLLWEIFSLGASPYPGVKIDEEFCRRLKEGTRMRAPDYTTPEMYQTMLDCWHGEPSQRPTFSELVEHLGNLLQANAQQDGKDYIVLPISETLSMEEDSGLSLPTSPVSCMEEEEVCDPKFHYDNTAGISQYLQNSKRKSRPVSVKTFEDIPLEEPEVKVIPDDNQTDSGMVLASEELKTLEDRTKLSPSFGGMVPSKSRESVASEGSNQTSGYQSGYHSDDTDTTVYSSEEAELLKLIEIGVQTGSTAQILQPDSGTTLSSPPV
MAP4K4, sequence (O95819 whole entry): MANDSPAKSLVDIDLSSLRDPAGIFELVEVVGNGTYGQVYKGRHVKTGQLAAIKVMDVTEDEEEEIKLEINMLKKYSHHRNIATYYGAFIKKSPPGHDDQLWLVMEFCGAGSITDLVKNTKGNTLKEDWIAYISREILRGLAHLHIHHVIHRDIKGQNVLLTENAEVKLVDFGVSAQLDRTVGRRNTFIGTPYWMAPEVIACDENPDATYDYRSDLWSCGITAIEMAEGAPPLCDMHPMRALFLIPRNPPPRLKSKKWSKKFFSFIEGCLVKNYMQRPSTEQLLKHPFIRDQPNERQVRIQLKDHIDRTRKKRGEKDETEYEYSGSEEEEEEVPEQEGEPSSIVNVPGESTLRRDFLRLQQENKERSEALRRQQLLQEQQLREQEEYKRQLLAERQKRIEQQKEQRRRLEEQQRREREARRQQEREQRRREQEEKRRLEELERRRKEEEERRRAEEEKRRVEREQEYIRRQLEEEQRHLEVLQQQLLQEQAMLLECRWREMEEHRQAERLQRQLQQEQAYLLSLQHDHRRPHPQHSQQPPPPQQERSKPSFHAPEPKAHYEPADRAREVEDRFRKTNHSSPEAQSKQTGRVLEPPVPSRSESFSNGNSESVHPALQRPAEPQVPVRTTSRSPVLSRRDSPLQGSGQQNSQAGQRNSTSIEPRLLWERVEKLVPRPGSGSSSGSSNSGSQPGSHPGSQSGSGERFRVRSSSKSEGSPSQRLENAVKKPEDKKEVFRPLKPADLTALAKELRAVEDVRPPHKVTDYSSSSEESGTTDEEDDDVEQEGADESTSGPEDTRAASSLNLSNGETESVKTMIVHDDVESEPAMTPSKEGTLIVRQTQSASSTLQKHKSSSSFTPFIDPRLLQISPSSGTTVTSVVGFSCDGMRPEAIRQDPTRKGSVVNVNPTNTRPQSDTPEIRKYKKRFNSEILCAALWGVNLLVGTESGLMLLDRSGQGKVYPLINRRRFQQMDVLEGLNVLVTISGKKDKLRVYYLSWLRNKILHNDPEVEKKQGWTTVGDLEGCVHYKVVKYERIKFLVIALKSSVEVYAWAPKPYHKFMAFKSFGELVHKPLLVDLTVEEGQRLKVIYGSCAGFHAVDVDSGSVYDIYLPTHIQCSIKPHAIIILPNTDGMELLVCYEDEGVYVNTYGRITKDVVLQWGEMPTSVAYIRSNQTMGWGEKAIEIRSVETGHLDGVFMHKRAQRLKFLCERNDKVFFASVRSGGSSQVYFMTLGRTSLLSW
CHK1, sequence (O14757 whole entry): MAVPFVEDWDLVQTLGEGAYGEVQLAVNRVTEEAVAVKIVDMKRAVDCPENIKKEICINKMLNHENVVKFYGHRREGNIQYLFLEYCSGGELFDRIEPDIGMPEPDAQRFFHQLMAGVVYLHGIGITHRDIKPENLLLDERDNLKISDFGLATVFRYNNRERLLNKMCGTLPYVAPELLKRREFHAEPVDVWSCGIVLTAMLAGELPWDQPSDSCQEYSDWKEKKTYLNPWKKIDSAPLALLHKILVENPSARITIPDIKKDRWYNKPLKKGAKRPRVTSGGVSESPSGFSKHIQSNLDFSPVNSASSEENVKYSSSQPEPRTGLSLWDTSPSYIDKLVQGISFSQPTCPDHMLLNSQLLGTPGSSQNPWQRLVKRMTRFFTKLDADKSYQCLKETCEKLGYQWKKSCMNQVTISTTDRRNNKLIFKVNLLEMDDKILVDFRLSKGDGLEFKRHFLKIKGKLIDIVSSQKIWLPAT
LCK, sequence (P06239 whole entry): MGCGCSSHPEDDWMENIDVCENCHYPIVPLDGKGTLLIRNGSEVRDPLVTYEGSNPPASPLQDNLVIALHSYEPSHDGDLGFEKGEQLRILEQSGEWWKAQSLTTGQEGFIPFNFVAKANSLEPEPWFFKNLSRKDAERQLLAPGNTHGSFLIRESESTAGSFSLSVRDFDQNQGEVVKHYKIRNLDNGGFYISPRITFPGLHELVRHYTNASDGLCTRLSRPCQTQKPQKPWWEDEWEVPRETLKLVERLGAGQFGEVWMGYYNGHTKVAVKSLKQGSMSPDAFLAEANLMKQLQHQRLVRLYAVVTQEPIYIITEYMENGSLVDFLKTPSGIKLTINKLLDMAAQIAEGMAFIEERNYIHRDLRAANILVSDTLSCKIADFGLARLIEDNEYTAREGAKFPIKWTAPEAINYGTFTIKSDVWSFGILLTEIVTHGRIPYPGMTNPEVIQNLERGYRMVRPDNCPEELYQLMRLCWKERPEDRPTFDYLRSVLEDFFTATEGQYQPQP

Compound: COc1cc(N2CCC(N3CCN(C)CC3)CC2)ccc1Nc1ncc(Cl)c(Nc2ccccc2P(C)(C)=O)n1 [Brigatinib, reference compound]
- levels of phosphorylation of STAT3 and STAT5 in tumor tissue [1]: decreased
- IC50 [2]: 0.626 ± 0.304 µM
- IC50 ([3]; read-out: IC50 BaF3-EML4-ALK C1156Y): 0.014 µM
- IC50 ([4]; read-out: IC50 BaF3-EML4-ALK WT): 0.006 µM
- IC50 [5]: 0.178 ± 0.052 µM
- IC50 [6]: 0.444 ± 0.084 µM
- IC50 [7]: 1.68 ± 0.762 µM
- IC50 [8]: 2.37 ± 1.33 µM
- IC50 [9]: 1.83 ± 0.231 µM
- IC50 [10]: 0.596 ± 0.052 µM
- IC50 [11]: > 10 µM
- IC50 [12]: > 10 µM
- IC50 [13]: 0.319 ± 0.013 µM
- IC50 [14]: 0.425 µM
- IC50 ([15]; read-out: IC50 BaF3): 2.12 ± 0.023 µM
- IC50 [16]: 0.009 µM
- IC50 [17]: 0.469 µM
- Tumor volume Mean [18, 21]: 174 mm³
- Tumor volume, individual animals [18, 21]: 116 and 221 and 152 and 134 and 154 and 194 and 207 and 229
- Tumor volume Mean [18, 22]: 252 mm³
- Tumor volume, individual animals [18, 22]: 235 and 195 and 320 and 239 and 193 and 260 and 247 and 262 and 319
- Tumor volume Mean [18, 23]: 352 mm³
- Tumor volume, individual animals [18, 23]: 344 and 246 and 444 and 301 and 248 and 364 and 372 and 370 and 474
- Tumor volume Mean [18, 24]: 461 mm³
- Tumor volume, individual animals [18, 24]: 473 and 337 and 548 and 418 and 289 and 518 and 482 and 535 and 555
- Tumor volume Mean [18, 25]: 502 mm³
- Tumor volume, individual animals [18, 25]: 454 and 241 and 654 and 480 and 315 and 575 and 637 and 495 and 666
- Tumor volume Mean [18, 26]: 547 mm³
- Tumor volume, individual animals [18, 26]: 521 and 320 and 707 and 541 and 350 and 627 and 656 and 464 and 737
- Tumor volume Mean [18, 27]: 612 mm³
- Tumor volume, individual animals [18, 27]: 710 and 414 and 729 and 637 and 412 and 711 and 707 and 501 and 687
- IC50 [19]: 0.07 ± 0.032 µM
- IC50 [20]: 1.52 ± 0.733 µM

Compound: COc1cc(N2CCC3(CCN(C)CC3)CC2)ccc1Nc1ncc(Cl)c(Nc2ccccc2P(C)(C)=O)n1 [Iruplinalkib]
- levels of phosphorylation of STAT3 and STAT5 in tumor tissue [1]: decreased
- IC50 [2]: 0.699 ± 0.261 µM
- IC50 ([3]; Mus musculus, BaF3): 0.009 µM
- IC50 ([4]; Mus musculus, BaF3): 0.004 µM
- IC50 ([5]; read-out: IC50 KDR): 0.26 ± 0.128 µM
- IC50 [6]: 0.825 ± 0.243 µM
- IC50 [7]: 1.84 ± 0.679 µM
- IC50 [8]: 3.21 ± 1.54 µM
- IC50 [9]: 2.94 ± 0.232 µM
- IC50 [10]: 0.576 ± 0.108 µM
- IC50 [11]: > 10 µM
- IC50 [12]: > 10 µM
- IC50 [13]: 0.939 ± 0.099 µM
- IC50 ([14]; Homo sapiens, HCC78): 0.228 µM
- IC50 ([15]; Mus musculus, BaF3): 2.21 ± 0.094 µM
- IC50 [16]: 0.0045 ± 0.0007 µM
- IC50 ([17]; Mus musculus, NIH3T3): 0.343 µM
- Tumor volume Mean [18, 28]: 176 mm³
- Tumor volume, individual animals [18, 28]: 188 and 164 and 230 and 150 and 236 and 136 and 182 and 147
- Tumor volume Mean [18, 29]: 295 mm³
- Tumor volume, individual animals [18, 29]: 324 and 257 and 368 and 284 and 366 and 229 and 267 and 234
- Tumor volume Mean [18, 30]: 449 mm³
- Tumor volume, individual animals [18, 30]: 431 and 392 and 594 and 476 and 695 and 327 and 410 and 337 and 384
- Tumor volume Mean [18, 31]: 606 mm³
- Tumor volume, individual animals [18, 31]: 596 and 541 and 738 and 570 and 1128 and 398 and 498 and 499 and 486
- Tumor volume Mean [18, 32]: 694 mm³
- Tumor volume, individual animals [18, 32]: 630 and 635 and 849 and 718 and 1127 and 586 and 573 and 580 and 545
- Tumor volume Mean [18, 33]: 887 mm³
- Tumor volume, individual animals [18, 33]: 729 and 821 and 1141 and 926 and 1167 and 805 and 883 and 751 and 758.9
- Tumor volume Mean [18, 34]: 972 mm³
- Tumor volume, individual animals [18, 34]: 760 and 976 and 1087 and 1021 and 1125 and 811 and 1040 and 1032 and 895
- Tumor volume Mean [18, 21]: 177 mm³
- Tumor volume, individual animals [18, 21]: 233 and 239 and 173 and 121 and 155 and 235
- Tumor volume Mean [18, 22]: 260 mm³
- Tumor volume, individual animals [18, 22]: 306 and 299 and 256 and 223 and 292 and 296
- Tumor volume Mean [18, 23]: 371 mm³
- Tumor volume, individual animals [18, 23]: 537 and 487 and 339 and 249 and 357 and 438
- Tumor volume Mean [18, 24]: 430 mm³
- Tumor volume, individual animals [18, 24]: 567 and 541 and 407 and 332 and 403 and 534
- Tumor volume Mean [18, 25]: 531 mm³
- Tumor volume, individual animals [18, 25]: 666 and 699 and 523 and 388 and 515
- Tumor volume Mean [18, 26]: 624 mm³
- Tumor volume, individual animals [18, 26]: 718 and 880 and 646 and 506 and 603
- Tumor volume Mean [18, 27]: 727 mm³
- Tumor volume, individual animals [18, 27]: 811 and 875 and 702 and 717 and 714
- Tumor volume Mean ([18]; 10mg/kg PO QD×21, day 0 after administration): 174 mm³
- Tumor volume Mean ([18]; 10mg/kg PO QD×21, day 3 after administration): 190 mm³
- Tumor volume Mean ([18]; 10mg/kg PO QD×21, day 6 after administration): 204 mm³
- Tumor volume Mean ([18]; 10mg/kg PO QD×21, day 9 after administration): 240 mm³
- Tumor volume Mean ([18]; 10mg/kg PO QD×21, day 13 after administration): 243 mm³
- Tumor volume Mean ([18]; 10mg/kg PO QD×21, day 16 after administration): 218 mm³
- Tumor volume Mean ([18]; 10mg/kg PO QD×21, day 20 after administration): 233 mm³
- IC50 [19]: 0.185 ± 0.041 µM
- IC50 [20]: 2.04 ± 1.17 µM
